Measurements as given in patent publication EP1551873B1, “AGONISTS AND ANTAGONISTS OF THE HUMAN ODORANT RECEPTOR OR17-4 AND USES THEREOF” (Symrise AG, priority 2002, dated 2004).

What was measured:
hOR17-4 = assay: Ca2+ imaging (Fura-2) of HEK293 cells transiently transfected with pOR17-4 (chimeric receptor); assay type: cell-based, human; conditions: for Rezeptoraktivierung (Ca^2+-Antwort): single odorant about 500 µM, pOR17-4-transfected HEK293 cells; for Wirksamkeit (Rangordnung der Agonisten): ranking by amplitude normalised to ATP and by responding cells relative to Cyclamal ca. 5 mM
Excerpt: Es wird vermutet, dass die Transmembrandomänen III-VI eine Bindungstasche zum Binden von Agonisten bilden (s. S. Firestein, Nature 413, 211-218 (2001)). Um diese Vermutung für den Rezeptor hOR17-4 zu überprüfen wurde ein für die vermuteten Transmembrandomänen III bis VI codierender Abschnitt der für hOR17-4 codierenden cDNA in einem Shuttle-Expressions-Vektor (pOLF-Express) kloniert. Der Expressionsvektor pOLF-Express umfasst die für die N- und C-terminalen Regionen von hOR17-40 codierenden DNA-Abschnitte (C. H. Wetzel et al., Journal of Neuroscience 19, 7426-7433 (1999)). Das resultierende chimäre Rezeptorprotein sollte die Agonistenspezifität des vollständigen Rezeptors hOR17-4 besitzen.
HEK293-Zellen wurden in MEM (Life Technologies, Gaithersburg, MD), das mit 10 % hitze-inaktiviertem fetalem Kälber-Serum angereichert war, in einem Inkubator bei 37 °C in einer Atmosphäre aus 95 % befeuchteter Luft und 5 % CO2 kultiviert. Semikonfluente Zellen wurden in 35 mm Gefäßen (Falcon) mittels Calciumphosphat-Präzipitation (Zufall et al., PNAS 90 (1993), 9335-9339) unter Verwendung jeweils des Plasmids pOR17-4 bzw. pOR17-4v transfiziert. Die Transfektionseffizienz - typischerweise 10 % - wurde histochemisch mit dem Reporterplasmid pCH110 (Pharmacia, Uppsala, Schweden) überprüft, das für β-Galactosidase codiert. Messungen wurden 48 bis 72 Stunden nach der Transfektion durchgeführt. Die Transfektionseffizienz kann mit einem für GFP, einem grün fluoreszierenden Protein, codierenden Reporterplasmid ebenfalls überprüft werden.
Die Rezeptor-Aktivierung in HEK293-Zellen führt zu einem vorübergehenden Anstieg der cytosolischen Ca^2+-Konzentration, die auf der Einzelzell-Ebene unter Verwendung des Ca^2+-sensitiven Farbstoffes Fura-2 (Fura-2 AM, Molecular Probes Europe BV, Leiden, Niederlande; Ladekonzentration 3-4 µg/ml; Ladezeit ca. 30 min) und ratiofluorometrischen Bildgebungstechniken (Imaging-Experimente) detektiert wurden.
Die Ca^2+-imaging-Experimente wurden auf dem Träger eines invertierten Zeiss-Mikroskopes durchgeführt, das für die ratiofluorometrische Bildgebung mit einer Xenon-Bogenlampe, einem Vielfach-Wellenlängen-Illuminations-System POLYCH-ROM II zur Anregung, einer gekühlten charge-coupled device (CCD)-Kamera und einer WinNT-basierten T.I.L.L.-Vision-Software zum Sammeln und raum- und zeitabhängigen Quantifizieren Ca^2+-abhängiger Fluoreszenz-Signale (F340/F380-Verhältnis) ausgestattet war. HEK293-Zellen wurden mit 32-facher, Spermazellen mit 63-facher Vergrößerung beobachtet.
HEK293- und Spermazellen wurden unter Verwendung eines speziellen Applikations-Systems, das es gestattete, vorübergehend alle Zellen im Blickfeld aus einem von sechs benutzergewählten Kapillarröhrchen zu überspülen, Geruchs- und/oder Wirkstoffen (Testlösungen) ausgesetzt. Der Wechsel zwischen den Testlösungen erfolgte nahezu sofort; auch trat im Wesentlichen keine Wirkungsverzögerung nach dem Wechsel auf, weil die Röhrchenspitzen zum optischen Feld eng benachbart waren. Zwischen den Applikationen von Testlösungen überspülte ein Pufferlösungsstrom kontinuierlich alle Zellen im Gefäß, um jedwede potentielle Hintergrund-Anreicherung von Testlösungen (Geruchs- bzw. Wirkstoffen) zu minimieren. Alle Lösungen wurden bei Raumtemperatur appliziert. Alle verwendeten Geruchsstoffe stammten von Dr. T. Gerke, Henkel KGaA, Düsseldorf, FRG, andere Wirkstoffe wurden von Sigma gekauft. Zur Zusammensetzung der Henkel 100-Mischung vergleiche C. H. Wetzel et al., Journal of Neuroscience 19, 7426-7433 (1999).
Alle auf die potentielle Aktivierung von hOR17-4 untersuchten Geruchsstoffe wurden wenigstens in drei verschiedenen Reihen von Transfektionsexperimenten getestet. […] Geruchsstoffe, die nicht in wenigstens 2 % aller HEK293-Zellen messbare Ca^2+-Konzentrationssteigerung auslösten, wurden nicht zu den hOR17-4-spezifischen Agonisten gezählt, ebenso diejenigen wenigen der untersuchten Komponenten, die ein unspezifisches Ca^2+-Signal in fast jeder Zelle hervorriefen. […]

Spermien = assay: Signal transduction inhibitors on bourgeonal response of sperm (chemotaxis and swimming speed); assay type: cell-based, human; conditions: inhibitor 50 µM, Bourgeonal 100 nM
Protocol: Gefrorene Samenproben von fünf gesunden Spendern wurden aus der California Cryobank (Los Angeles, CA, USA) erhalten und für Bioassays gemäß den World Health Organization-Richtlinien (World Health Organization: Laboratory for the examination of human serum and semen-cervical mucus interaction, Cambridge University Press (1993)) vorbereitet (vgl. vorheriges Beispiel und Beispiel 7). Bevor oder während die Spermien mit Bourgeonal (100 nM) behandelt wurden, wurden sie jeweils (a) mit Adenylatcyclase-Inhibitor (MDL-12,330A, 50 µM) und (b) mit einem Phospholipase C-Inhibitor (U73122, 50 µM) behandelt.

hOR17-40 [1] = target: T1, hOR17-40 (Homo sapiens, UniProt P47881); conditions: literature (Wetzel et al. 1999), HEK293; cited from earlier work
T1 construct: pOR17-40 (Ausschnitt) mit der vollständigen cDNA von hOR17-40; expressed in transfected cells; host or cells: HEK293, plasmid pOR17-40
T1 sequence (P47881 1-315): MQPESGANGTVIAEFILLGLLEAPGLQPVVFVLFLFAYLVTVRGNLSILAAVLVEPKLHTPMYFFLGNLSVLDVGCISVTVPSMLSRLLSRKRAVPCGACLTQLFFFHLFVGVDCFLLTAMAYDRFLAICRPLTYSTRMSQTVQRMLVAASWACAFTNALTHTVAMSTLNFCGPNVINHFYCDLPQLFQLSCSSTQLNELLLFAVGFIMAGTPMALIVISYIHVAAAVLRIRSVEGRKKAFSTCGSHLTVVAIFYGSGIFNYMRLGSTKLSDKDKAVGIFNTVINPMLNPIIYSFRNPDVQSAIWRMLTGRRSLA

Ratten-I7-Rezeptor = target: T2, Ratten-I7-Rezeptor (Rattus norvegicus, UniProt P23270); conditions: cited from earlier work
T2 sequence (P23270 1-327): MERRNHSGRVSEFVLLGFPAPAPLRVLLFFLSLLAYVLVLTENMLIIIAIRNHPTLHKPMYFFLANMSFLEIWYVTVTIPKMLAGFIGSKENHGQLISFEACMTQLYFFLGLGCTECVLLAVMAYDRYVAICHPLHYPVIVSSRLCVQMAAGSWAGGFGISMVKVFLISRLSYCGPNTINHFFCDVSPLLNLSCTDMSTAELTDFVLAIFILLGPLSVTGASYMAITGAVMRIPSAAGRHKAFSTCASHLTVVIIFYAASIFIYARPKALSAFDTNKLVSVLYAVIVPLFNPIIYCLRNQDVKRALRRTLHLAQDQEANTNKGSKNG

hOR17-40 [2] = target: T1, hOR17-40; assay: Ca2+ imaging of HEK293 cells transfected with pOR17-40; assay type: cell-based; conditions: n=168
[3] = system: olfaktorische Rezeptor OR5; conditions: receptor expressed in E. coli; cited from earlier work

Compound	Rezeptoraktivierung (Ca^2+-Antwort) (hOR17-4)	also measured
O=Cc1ccccc1 [Benzaldehyd, reference compound]	keine messbare Antwort	–
CCc1ccc(CC(C)(C)C=O)cc1 [Floralazon]	Fähigkeit der Substanzen, den Rezeptor zu aktivieren	–
CC(CCO)c1ccccc1 (centres unmarked) [3-Phenylbutylalkohol, reference compound]	aktivierten den Rezeptor nicht	–
Cl.c1ccc(C2CCCC2NC2=NCCCCCCCCCCC2)cc1 (centres unmarked) [MDL-12,330A]	–	Anteil der bourgeonal-responsiven Spermien, die nicht mehr auf Bourgeonal reagierten (Spermien; missing chemotaxis and missing change of swimming speed): 72%
CC(C=O)Cc1ccc(C(C)C)cc1 (centres unmarked) [Cyclamal]	Agonist identifiziert	Wirksamkeit (Rangordnung der Agonisten) (hOR17-4): nicht der wirksamste Agonist; Desensitisierung der Geruchsstoff-Antwort (hOR17-4; single application, most responsive cells, ATP response unchanged): vollständigen und langanhaltenden Desensitisierung
O=C(O)CCc1ccccc1 [3-Phenylpropionsäure, reference compound]	aktivierten den Rezeptor nicht	–
CC(=O)CCc1ccc2c(c1)OCO2 [Heliotropylaceton]	–	Agonist (Aktivierung des Rezeptors, Erhöhung des cytosolischen Ca^2+-Spiegels) (hOR17-40 [1]): als Agonisten wirkende Substanzen
Citrusal [reference compound]	nicht aktivierenden	–
O=CCCCc1ccccc1 [4-Phenylbutylaldehyd, 4-Phenylbutyraldehyd]	deutliche Ca^2+-Signale	–
O=CC=Cc1ccccc1 [Cinnamaldehyd, reference compound]	vollständig inaktiv	–
COc1ccc(CC(C)C=O)cc1 (centres unmarked) [Canthoxal]	klare Ca^2+-Antworten	Induktion einer Ca^2+-Konzentrationssteigerung (hOR17-4; agonist concentration reduced to 10^-6 M): zu einem gewissen Ausmaß; Wirksamkeit (Rangordnung der Agonisten) (hOR17-4): wirksamere Agonisten
CC(C)(C)c1ccc(OCC=O)cc1 [(4-tert-Butylphenoxy)acetaldehyd, (4-tert-butylphenoxy)acetaldehyd]	erzeugte ein Ca^2+-Signal	–
CCCCCCCC=O [Octanal, reference compound]	nicht aktiviert	Stimulation des Rezeptors (Ratten-I7-Rezeptor): stimuliert
CC(C)c1ccccc1 [Isopropylbenzol, reference compound]	induzierte keine Rezeptoraktivität	–
CC(C=O)Cc1ccc2c(c1)OCO2 (centres unmarked) [Helional, reference compound]	keiner Rezeptoraktivierung	vorübergehende Erhöhung des cytosolischen Ca^2+-Spiegels, Anteil aller getesteten Zellen (hOR17-40 [2]): 2 - 5%; Agonist (Aktivierung des Rezeptors, Erhöhung des cytosolischen Ca^2+-Spiegels) (hOR17-40 [1]): als Agonisten wirkende Substanzen
O=CCCCCc1ccccc1 [5-Phenylvaleraldehyd, reference compound]	keine messbare Antwort	–
CC(C=O)Cc1ccc(C(C)(C)C)cc1 (centres unmarked) [Lilial, reference compound]	Fähigkeit der Substanzen, den Rezeptor zu aktivieren	spezifische Bindung [3]: spezifische Bindung; Wirksamkeit (Rangordnung der Agonisten) (hOR17-4): wirksamere Agonisten
CC=Cc1ccc(OC)cc1 [Anethol, reference compound]	aktivierten den Rezeptor nicht	–
COc1ccc2c(c1)CC[C@@H]1[C@@H]2CC[C@]2(C)[C@@H](NCCCCCCN3C(=O)C=CC3=O)CC[C@@H]12 [U73122]	–	Änderung des Spermienverhaltens (Spermien): keine Änderung des Spermienverhaltens
O=CCCc1ccccc1 [3-Phenylpropanal]	klaren Ca^2+-Antworten	–
CC(CC=O)c1ccccc1 (centres unmarked) [3-PBA, 3-Phenylbutyraldehyd]	klaren Ca^2+-Antworten	eine Ca^2+-Reaktion nicht mehr auslösender Schwellenwert (hOR17-4): ~50 µM
O=CCc1ccccc1 [Phenylacetaldehyd]	deutliche Ca^2+-Signale	–
